According to US20150065524A1, “KINASE INHIBITOR POLYMORPHS” (Intellikine LLC, priority 2011, published 2015):
Blank lines part the entries; values can stand above or below the compound they belong to.

Columns and labels:
Type in all cases: physicochemical
[1] = Stability testing: storage at 40° C./75% RH or 25° C./97% RH, reanalysis by XRPD; details: for Stability at 40° C./75% RH: salts of Formula I, salt screening; for Stability at 40° C./75% RH, reanalysis by XRPD: stored at 40° C./75% RH, after 7 days, 21 days and 35 days; for Solid form by XRPD after storage at 40° C./75% RH: 7 days, samples of entries 38, 39, 41, 42; for Solid form after storage at 40° C./75% relative humidity: 8 days storage
Description: A sample of J00439 was stored at 40° C./75% RH. […] Thus this solid form (which will be referred to as Form A) was stable to accelerated stability testing conditions. Note that some variations in XRPD peak intensity were observed over time.
Samples of entries 38, 39, 41, and 42 were stored at 40° C./75% RH. […]

[2] = Gravimetric Vapour Sorption (GVS); details: for Solid form by XRPD after the GVS experiment: material recovered after GVS; for Weight lost during the first sorption cycle (GVS): from 40 to 90% RH
From the text: There was no hysteresis. The material is non-hygroscopic.
The sample was non-hygroscopic, with only 0.16% weight gain in the first sorption cycle.

[3] = Drying of the solids under vacuum, reanalysis by XRPD; details: for Solid form after drying: vacuum oven at 40° C. overnight, XRPD and 1H NMR
Description: A sample of each solid was dried in a vacuum oven at 40° C. overnight, then the samples were reanalysed by XRPD and ^1H NMR.
Approximately 20 mg of compound of Formula I (Form A) were weighed into vials, and 150 microliters of solvent system were added. The vials were agitated at 50° C., 5° C., or cycled between room temperature and 50° C. for 4 to 5 days. Solids were isolated by filtration and characterized by XRPD and thermal analysis. From acetone/5% water at 5° C., a hydrate was isolated (see FIGS. 15 and 16). […] From dimethylacetamide (DMA) cycled between room temperature and 50° C. for 5 days, a solvate was isolated (see FIGS. 17 and 18). […] Inclusion of 10% or more water with DMA prevented formation of DMA solvate.

[4] = Stability testing: storage at 40° C./75% RH or 25° C./97% RH, reanalysis by XRPD; details: 8 days storage
Heating to about 100° C. = assay: Heating to about 100° C.

- Solid form by XRPD after storage at 40° C./75% RH [1]: turned into Form A
- Solid form after drying [3]: only partially desolvated
- Weight lost during the first sorption cycle (GVS) ([2]; first sorption cycle): 28 % wt
- Solid form by XRPD after the GVS experiment [2]: desolvated to Form A
Compound: CC(C)n1nc(-c2ccc3oc(N)nc3c2)c2c(N)ncnc21 [Form B]

- Solid form by XRPD after storage at 40° C./75% RH [1]: turned into Form A
- Solid form after drying [3]: desolvated to Form A
- Weight lost during the first sorption cycle (GVS) ([2]; first sorption cycle): 28 % wt
- Solid form by XRPD after the GVS experiment [2]: turned to Form A
Compound: CC(C)n1nc(-c2ccc3oc(N)nc3c2)c2c(N)ncnc21 [Form E]

- Solid form after storage at 25° C./97% relative humidity [4]: converted to Form A
- Solid form after heating (Heating to about 100° C.): converted to Form A
- Solid form after storage at 40° C./75% relative humidity [1]: converted to Form A
- Solid form after vacuum drying ([3]; vacuum drying): converted to Form A
- Solid form by XRPD after the GVS experiment [2]: converted to Form A
Compound: CC(C)n1nc(-c2ccc3oc(N)nc3c2)c2c(N)ncnc21 [hydrate]

- Stability at 40° C./75% RH [1]: Stable for 7 days
Compound: 1,2-Ethane disulfonic acid

Continued, compound first:

Compound: Ethane sulfonic acid
- Stability at 40° C./75% RH [1]: Deliquescent

Compound: CC(C)n1nc(-c2ccc3oc(N)nc3c2)c2c(N)ncnc21 [Form A, 5-(4-amino-1-isopropyl-1H-pyrazolo[3,4-d]pyrimidin-3-yl)benzo[d]oxazol-2-Amine]
- Stability at 40° C./75% RH, reanalysis by XRPD [1]: stable
- Stability at 40° C./75% RH, reanalysis by XRPD ([1]; listed as J00439): still pattern A
- Hygroscopicity by GVS [2]: non-hygroscopic
- Solid form by XRPD after the GVS experiment [2]: still pattern A
- GVS weight change over the whole experiment ([2]; whole GVS experiment): 0.1%

Compound: Methane sulfonic acid
- Stability at 40° C./75% RH [1]: Deliquescent

Compound: Cc1ccc(S(=O)(=O)O)cc1 [p-Toluene sulfonic acid]
- Stability at 40° C./75% RH [1]: Changes pattern after 3 days,

Compound: Maleic acid
- Stability at 40° C./75% RH [1]: Stable for 7 days

Compound: CC(C)n1nc(-c2ccc3oc(N)nc3c2)c2c(N)ncnc21 [Form C]
- Solid form by XRPD after storage at 40° C./75% RH [1]: still of Form C
- Solid form after drying [3]: stable on drying
- Hygroscopicity by GVS [2]: non-hygroscopic
- Weight loss on desorption (GVS) ([2]; between 90 and 0% RH): 0.38%
- Weight gain in the first sorption cycle (GVS) ([2]; first sorption cycle): 0.16%
- Solid form by XRPD after the GVS experiment [2]: still Form C

Compound: CC(C)n1nc(-c2ccc3oc(N)nc3c2)c2c(N)ncnc21 [DMA solvate]
- Solid form after storage at 25° C./97% relative humidity [4]: converted to Form A
- Solid form after heating (Heating to about 100° C.): converted to Form A
- Solid form after storage at 40° C./75% relative humidity [1]: converted to Form A
